{
  "source": "patent US20100190694A1",
  "about": "“Methods for identifying patients who will respond well to cancer treatment” (priority 2009, published 2010)",
  "tested_on": "advanced solid tumors",
  "test": "Phase I study: efficacy by RECIST, treatment duration, TTP",
  "type": "in vivo, human",
  "settings": "Pat 101-6, esophageal adenoca, before study",
  "from_the_text": "Phase I dose-escalation, multi-center study with the objectives to assess: • maximum tolerated dose and dose limiting toxicities (DLT) of Bel in combination with FU • impact of Bel on expression of TS, dihydropyrimidine dehydrogenase (DPD), and p21, in tumor and non-tumor surrogate tissue (peripheral blood mononuclear cells; PBMC) • preliminary anti-tumor activity of Bel in combination with FU • impact of Bel on ECG parameters • pharmacokinetics (PK) of Bel when given in combination with FU\nTreatment cycles of 21 days included Bel alone in cycle 1, and Bel in combination with FU in all subsequent cycles (FIG. 4). Treatment was to continue until significant treatment-related toxicity or progressive disease. […]\nDLTs, i.e. grade ¾ non-hematologic toxicities and grade 4 neutropenia or thrombocytopenia, were determined in cycles 1 and 2. Safety was assessed by NCI CTC (v. 3) and efficacy by RECIST criteria. Expression of TS, DPD, and p21 mRNA was measured by RTQ-PCR in PBMC (20 patients at baseline, and pre-dosing, 6 and 24-hours post-dosing, on days 1 and 4 in cycle 1) and in tumor biopsies (8 patients at baseline and once on days 4 or 5 in cycle 1). Results were expressed as gene expression relative to actin (i.e. TS/Actin Relative Gene Expression, DPD/Actin Relative Gene Expression, and p21/Actin Relative Gene Expression).",
  "data": [
    {"smiles": "CC(=O)O[C@H]1C(=O)[C@@]2(C)[C@H]([C@H](OC(=O)c3ccccc3)[C@]3(O)C[C@H](OC(=O)[C@H](O)[C@@H](NC(=O)c4ccccc4)c4ccccc4)C(C)=C1C3(C)C)[C@]1(OC(C)=O)CO[C@@H]1C[C@@H]2O", "note": "[paclitaxel]", "values": [
      {"measurement": "TTP on most recent prior line of therapy", "result": "(12.0 weeks)"}
    ]}
  ]
}
